In patent US20230416802A1, “SPECIFIC SUBSTRATES AND PRODUCTS OF HSD17B13 AS MARKERS OF LIVER DISEASE AND BIOMARKERS FOR LIVER DISEASE TREATMENT” (INIPHARM, INC., priority 2020, published 2023):

Target: T1, HSD17B13 enzyme (Homo sapiens, UniProt Q7Z5P4)
T1 construct: His; made in house; host or cells: E. coli
T1 sequence (Q7Z5P4 20-300): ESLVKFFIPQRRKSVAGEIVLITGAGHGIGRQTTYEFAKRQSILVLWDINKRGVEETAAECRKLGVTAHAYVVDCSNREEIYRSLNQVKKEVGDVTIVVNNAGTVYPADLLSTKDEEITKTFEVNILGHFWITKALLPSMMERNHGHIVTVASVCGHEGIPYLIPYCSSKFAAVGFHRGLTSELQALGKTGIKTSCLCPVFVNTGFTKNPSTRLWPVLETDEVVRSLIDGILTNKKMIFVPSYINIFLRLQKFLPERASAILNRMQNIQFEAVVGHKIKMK
Assay: HSD17B13 activity assay using NADH fluorescence
Type: biochemical
Conditions: substrate at 3.3 μM; activity relative to positive control LTB3
Method: A fluorescence based HSD17B13 activity assay was used to monitor the fluorescence of NADH, which is generated from NAD+ during the dehydrogenation of the substrate LTB3 or other substrates. Reactions were performed in a 384-well plates (Greiner; #655076) in a 20 μl reaction volume containing the following reagents (final concentrations): 3 mM NAD^+ (Sigma; #N0623); 125 nM HSD17B13 enzyme (in-house E. coli expressed His-tagged, purified, soluble protein); 1 M potassium phosphate buffer, pH 7.4; 1% DMSO; and a range of substrate concentrations ([…]). Reactions proceeded for […] at 26.5° C. Generation of NADH was measured as the fluorescence signal (Excitation at 340 nm and Emission at 445 nm) at 3 hours minus the baseline fluorescence at t=0. Fluorescence signals in the absence of added substrate (negative control values), were subtracted from all values so that the results reflected substrate-dependent production of NADH. NADH standards were included to allow the conversion of relative fluorescence units into rates of enzyme activity. Ten concentrations of substrate were tested (in the range of 30 mM-2.5 nM), and two independent assessments were performed at each concentration. Activity was compared to the positive control, LTB3, at a concentration of […]. Results are reported as the ratio: [Activity of compound at 30 mM]/[Activity of LTB3 at […]].

Row | Relative oxidation (%) at 3.3 μM | SMILES
1 | 35 (AT 3.3 μM) % | CCCCCCCCCCCC(=O)SCCNC(=O)CCNC(=O)[C@H](O)C(C)(C)COP(=O)(O)OP(=O)(O)OC[C@H]1O[C@@H](n2cnc3c(N)ncnc32)[C@H](O)[C@@H]1OP(=O)(O)O [Lauryl coenzyme A, S-[2-[3-[[(2R)-4-[[[(2R,3S,4R,5R)-5-(6-aminopurin-9-yl)-4-hydroxy-3-phosphonooxyoxolan-2-yl]methoxy-hydroxyphosphoryl]oxy-hydroxyphosphoryl]oxy-2-hydroxy-3,3-dimethylbutanoyl]amino]propanoylamino]ethyl] dodecanethioate]

Same assay, conditions: substrate at 10 μM; activity relative to positive control LTB3

Row | Relative oxidation (%) at 10 μM | SMILES
2 | 29 (at 10 μM) % | CC(C(=O)O)C(=O)SCCNC(=O)CCNC(=O)[C@H](O)C(C)(C)COP(=O)(O)OP(=O)(O)OC[C@H]1O[C@@H](n2cnc3c(N)ncnc32)[C@H](O)[C@@H]1OP(=O)(O)O (stereo partly drawn) [Methyl malonyl coenzyme A, (9R)-1-[(2R,3S,4R,5R)-5-(6-Amino-9H-purin-9-yl)-4-hydroxy-3-(phosphonooxy)oxolan-2-yl]-3,5,9-trihydroxy-8,8,20-trimethyl-3,5,10,14,19-pentaoxo-2,4,6-trioxa-18-thia-11,15-diaza-3λ5,5λ5-diphosphahenicosan-21-oic acid]

Same assay, conditions: substrate at 30 μM; activity relative to positive control LTB3; NADH production by purified HSD17B13

Row | Relative oxidation at 30 μM (%) | SMILES
3 | 105 | CC/C=C\C[C@H](O)/C=C/C=C\C=C\[C@@H](O)C/C=C\C/C=C\CCC(=O)O [Protectin DX, 10(S),17(S)-dihydroxy-4Z,7Z,11E,13Z,15E,19Z-docosahexaenoic acid]
4 | 135 | CC/C=C\C[C@H](O)/C=C/C=C\C=C\C=C\[C@@H](O)[C@@H](O)C/C=C\CCC(=O)O [Resolvin D1, 7S,8R,17S-trihydroxy-4Z,9E,11E,13Z,15E,19Z-docosahexaenoic acid]
5 | 45 | CC[C@@H](O)/C=C/C=C\C[C@@H](O)/C=C/C=C/C=C\[C@@H](O)CCCC(=O)O [Resolvin E1, 5S,12R,18R-trihydroxy-6Z,8E,10E,14Z,16E-eicosapentaenoic acid]

Second part, the molecule before the results:

Row | SMILES | Relative oxidation at 30 μM (%)
6 | CCCCC/C=C\C[C@@H](O)/C=C/C=C\C/C=C\CCCC(=O)O [12(R) HETE] | 60
7 | CCCCCCCC[C@@H](O)/C=C/C=C\C=C\[C@@H](O)CCCC(=O)O [Leukotriene B3 (LTB3), 5S,12R-dihydroxy-6Z,8E,10E-eicosatrienoic acid] | 100
8 | CC/C=C\C/C=C\C[C@H](O)\C=C/C=C/C=C/[C@H](O)C/C=C\CCC(=O)O [Maresin 1, 7R,14S-dihydroxy-4Z,8E,10E,12Z,16Z,19Z-docosahexaenoic acid] | 22
9 | CCCCC[C@@H](O)/C=C/C=C\CCCCCCCCCC(=O)O [15 (R) HEDE] | 46
